SMILES strings stand for the structures.

These results are taken from patent US8710067B2, “Method for the treatment, alleviation of symptoms of, relieving, improving and preventing a cognitive disease, disorder or condition” (Alcobra Ltd., priority 2009, dated 2014).

Data set [1] in a line: Pharmacokinetics after single administration to fasted healthy subjects (Example 1). In kind it is in vivo, human. From the text:
The above mentioned formulations were given to fasted healthy patients. Blood samples were collected following a predetermined time schedule in order to characterize formulation adsorption and elimination.

The subject of data set [2] is ADHD/ADD adult patients. As to the kind of experiment: TOVA (Test of Variables of Attention) in ADHD/ADD adult patients (Example 2). It is filed as in vivo, human. The conditions noted are these: n = 12; Bonferroni adjustment; NS, p 0.258. Here is the method: (§1) 38 ADHD/ADD adult patients (age 18-45) of ADHD unit of the Geha Mental Health Center (Israel) were tested.
(§2) A total of four tablets were administered to each patient: • Two tablets of immediate release (IR) formulation (defined in Table 4) and • Two tablets of slow release (SR) formulation (defined in Table 5).
(§3) Tests at inclusion included selection of patients, and included clinical diagnosis by DSM IV, psychiatric examination, WURS & ASRS questionnaires, TOVA (Test of Variables of Attention) score, Wechsler (Wechsler Adult Intelligence Scale) subtests, BDI (Beck Depression Inventory) and STAI (State-Trait Anxiety Inventory) questionnaire.
The TOVA is a computerized test developed to assess attention and impulsivity in normal and clinical populations. Main outcome measures for the TOVA are the Omission Standard Score (SS; inattention measure) the Commission Standard Score (SS; measure of impulse control), the Response Time (RT) SS, the Variability in RT SS, and overall ADHD SS (a composite score of the previous submeasures).
(§4) The Primary outcome measure was the ADHD Score, TOVA Omission, TOVA Commission, TOVA RT and TOVA Variability analysed as Standard Score in % compared to the patient's prior performance of the TOVA test at baseline. Secondary outcome measures were Subtests from Weschler: Digit span, Symbol Search, Digit symbol.

For data set [3], the system named is ADHD/ADD adult patients. As to the kind of experiment: Wechsler subtests in ADHD/ADD adult patients (Example 2). It is filed as in vivo, human. The conditions noted are these: single dose 1400 mg, 90 minutes after dosing. The protocol:
as §1, §2, §3, §4

For data set [4] the following is noted: cited from earlier work.
For data set [5], the system named is animals with alcohol intake. The conditions noted are these: animal studies, cited from earlier work.
Data set [6] has as its system frontoparietal cortex of guinea pigs. The conditions noted are these: cited from earlier work.
For data set [7], the system named is abstinent chronic alcoholic. Conditions: abstinent chronic alcoholics, after 1-2 months of abstinence; control group given vitamin B6; cited from earlier work.
Data set [8] deals with humans. Conditions: long term data; cited from earlier work.

`Cc1ncc(CO)c(CO)c1O.O=C1CC[C@@H](C(=O)O)N1` [Metadoxine, pyridoxine L-2-pyrrolidone-5-carboxylate]: in data set [1] (FIG. 1, immediate/slow release formulations, fasted healthy subjects), the “time to maximal concentration” value is “about 0.5 hour”. Further, the “dose-linearity for Cmax and AUC” value in data set [1] (single administration, dose range 700 to 2100 mg, healthy Caucasian subjects) is given as “dose-linearity was demonstrated”. In addition, the “ADHD Score, Mean Difference, comparison with (3) Metadoxine 1400 mg, other group not given” value in data set [2] is “+3.687 NS”. The “cognitive functions in the ADHD adult population (Wechsler subtests overall)” value in data set [3] is listed as “confirmed the ability of Metadoxine to improve cognitive functions”. Also, the “mean half life in human serum” value in data set [4] (Lu Yuan et al.) is listed as “about 0.8 hour”. The “half life in human serum” value in data set [4] (oral and intravenous administration, no appreciable differences) is 40 to 60 min. Moreover, the bioavailability in data set [4] (oral) was 60-80%. Also, the “increased production of fatty acid esters in the liver” value in data set [5] (during chronic alcohol intake) is given as “inhibited”. Further, in data set [5], the “oxidative stress and glutathione depletion in hepatic tissues” value is “reduced oxidative stress and prevented glutathione depletion”. Also, in data set [6], the “level of GABA and acetylcholine” value was “increased”. In addition, the “recovery of short-term memory” value in data set [7] is given as “helps recovery of short-term memory”. Besides, the “safety for use by humans” value in data set [8] is “safe for use by humans”.
